Results on 1 molecule are retold here after US8754129B2, “Crystalline vorinostat form VI” (Generics [UK] Limited, priority 2008, dated 2014).

The series can be described thus: Polymorphic stability on storage at 40° C./75% relative humidity. In kind it is physicochemical. Conditions: kept at a temperature of 40° C.±2° C. and a relative humidity of 75%±5% for 6 months. How it is done: All XRPD analyses were carried out on a Bruker D8 Advance instrument, equipped with a copper radiation source with a wavelength of 1.54 Å.
All DSC analyses were carried out on a Perkin Elmer instrument, over a temperature range of 25° C. to 250° C., at a heating rate of 10° C./min, using a closed aluminium pan with a pinhole as crucible.

In the case of `O=C(CCCCCCC(=O)Nc1ccccc1)NO` [crystalline form VI, N-hydroxy-N′-phenyl-octanediamide], the “polymorphic stability (conversion over time to other polymorphs)” value is “very stable polymorphically with no conversion over time to other polymorphs”.
